In general, IC50 refers to the concentration that inhibits the measured activity by half.

These results are taken from patent publication US7951813B2, “Quinazolinone derivatives as ALDH-2 inhibitors” (Gilead Sciences, Inc., priority 2007, dated 2011).

The target in one assay is T1, hALDH2 (UniProt P05091).
T1 sequence (P05091 1-517): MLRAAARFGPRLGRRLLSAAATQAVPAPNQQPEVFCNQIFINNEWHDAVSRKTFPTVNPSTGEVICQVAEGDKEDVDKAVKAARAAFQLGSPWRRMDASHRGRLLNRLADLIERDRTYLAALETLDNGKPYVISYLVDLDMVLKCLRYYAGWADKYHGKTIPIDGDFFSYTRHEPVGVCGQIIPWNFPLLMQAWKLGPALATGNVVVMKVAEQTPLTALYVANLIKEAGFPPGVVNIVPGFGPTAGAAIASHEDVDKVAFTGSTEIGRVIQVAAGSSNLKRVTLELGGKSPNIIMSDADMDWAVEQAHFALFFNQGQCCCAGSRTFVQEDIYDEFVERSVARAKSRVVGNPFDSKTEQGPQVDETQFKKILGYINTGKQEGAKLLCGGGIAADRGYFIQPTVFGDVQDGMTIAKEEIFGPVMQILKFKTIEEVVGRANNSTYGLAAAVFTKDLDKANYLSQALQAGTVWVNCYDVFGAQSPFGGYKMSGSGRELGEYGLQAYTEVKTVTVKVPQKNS
Description: ALDH-2 assay (inhibition of hALDH2). It is filed as biochemical, human.

For the next assay, the target named is T2, hMAO-A (UniProt P21397).
T2 sequence (P21397 1-527): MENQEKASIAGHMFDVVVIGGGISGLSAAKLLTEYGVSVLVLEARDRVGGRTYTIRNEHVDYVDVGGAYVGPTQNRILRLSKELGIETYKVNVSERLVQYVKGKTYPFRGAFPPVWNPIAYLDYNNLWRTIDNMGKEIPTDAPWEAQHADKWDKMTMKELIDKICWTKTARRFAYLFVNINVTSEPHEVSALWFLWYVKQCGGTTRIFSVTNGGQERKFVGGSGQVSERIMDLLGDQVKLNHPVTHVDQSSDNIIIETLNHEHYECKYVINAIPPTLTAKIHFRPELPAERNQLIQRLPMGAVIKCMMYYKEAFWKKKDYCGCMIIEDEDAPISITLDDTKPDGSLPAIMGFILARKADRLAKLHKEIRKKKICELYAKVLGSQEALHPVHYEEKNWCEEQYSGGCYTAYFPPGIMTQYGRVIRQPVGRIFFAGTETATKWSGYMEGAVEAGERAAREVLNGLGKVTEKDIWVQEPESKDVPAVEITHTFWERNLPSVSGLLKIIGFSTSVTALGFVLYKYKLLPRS
Briefly: MAO assay (inhibition of hMAO-A). Particulars: read-out: IC50 hMAO-A (No inhibition up to 10 μM). It is filed as biochemical, human.

For a further assay, the target named is T3, hMAO-B (Homo sapiens, UniProt P27338).
T3 sequence (P27338 2-520 limits assumed): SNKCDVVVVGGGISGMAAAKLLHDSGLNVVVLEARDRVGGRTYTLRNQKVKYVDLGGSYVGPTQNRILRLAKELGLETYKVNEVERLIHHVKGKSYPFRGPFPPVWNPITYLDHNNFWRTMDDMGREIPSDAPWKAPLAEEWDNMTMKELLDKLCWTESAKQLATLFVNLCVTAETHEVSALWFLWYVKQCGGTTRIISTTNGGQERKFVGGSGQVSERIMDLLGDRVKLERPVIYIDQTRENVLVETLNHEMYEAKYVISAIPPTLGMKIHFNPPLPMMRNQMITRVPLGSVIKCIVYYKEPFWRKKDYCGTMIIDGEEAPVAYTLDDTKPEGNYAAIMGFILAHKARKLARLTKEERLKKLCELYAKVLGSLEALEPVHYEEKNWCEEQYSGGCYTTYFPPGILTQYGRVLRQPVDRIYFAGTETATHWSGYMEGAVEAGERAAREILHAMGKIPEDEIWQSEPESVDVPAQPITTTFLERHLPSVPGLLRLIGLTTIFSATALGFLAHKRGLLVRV
Briefly: MAO assay (inhibition of hMAO-B). It is filed as biochemical. The note with it: read-out: IC50 hMAO-B (No inhibition up to 10 μM).

Assay [1] addresses T4, human mitochondrial aldehyde dehydrogenase (ALDH-2) (Homo sapiens, UniProt P05091).
T4 sequence (P05091 18-517): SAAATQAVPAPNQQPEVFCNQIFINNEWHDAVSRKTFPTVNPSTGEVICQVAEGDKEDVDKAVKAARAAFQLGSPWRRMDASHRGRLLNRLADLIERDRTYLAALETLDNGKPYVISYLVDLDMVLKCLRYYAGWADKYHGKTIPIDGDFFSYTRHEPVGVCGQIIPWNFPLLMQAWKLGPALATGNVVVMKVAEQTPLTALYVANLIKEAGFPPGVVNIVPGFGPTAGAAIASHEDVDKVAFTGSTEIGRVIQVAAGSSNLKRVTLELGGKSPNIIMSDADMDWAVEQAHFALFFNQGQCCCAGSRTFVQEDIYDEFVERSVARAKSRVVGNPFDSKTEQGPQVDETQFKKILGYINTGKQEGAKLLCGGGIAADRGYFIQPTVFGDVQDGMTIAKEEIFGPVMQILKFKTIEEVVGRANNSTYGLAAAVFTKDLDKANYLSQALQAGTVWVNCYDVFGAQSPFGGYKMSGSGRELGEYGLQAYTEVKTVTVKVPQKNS
The note with it: background statement, U.S. Pat. Nos. 5,624,910 and 6,121,010; cited from earlier work.

A further assay deals with Syrian golden hamsters. Particulars: background statement, Keung and Vallee; U.S. Pat. Nos. 5,624,910 and 6,121,010; cited from earlier work.

Entries after “also recorded” stand apart in the source; their conditions may differ.

For `CC(C)OC(=O)c1cccc(COc2ccc3c(=O)n(-c4ccc(O)cc4)cnc3c2)c1` [methylethyl 3-{[3-(4-hydroxyphenyl)-4-oxo-3-hydroquinazolin-7-yloxy]methyl} benzoate], the figures for the IC50 against hALDH2, on hMAO-A and at hMAO-B were 0.095 µM, > 10 µM and > 10 µM, respectively.
`O=c1c(-c2ccc(O)cc2)coc2cc(O[C@@H]3O[C@H](CO)[C@@H](O)[C@H](O)[C@H]3O)ccc12` [Daidzin, daidzin]: in assay [1], the “inhibition of human mitochondrial ALDH-2” value is “potent and selective inhibitors”.
Consider `O=c1c2ccc(OCc3noc(-c4cc(C(F)(F)F)ccc4C(F)(F)F)n3)cc2ncn1-c1ccc(O)cc1` [7-({5-[2,5-bis(trifluoromethyl)phenyl](1,2,4-oxadiazol-3-yl)}methoxy)-3-(4-hydroxyphenyl)-3-hydroquinazolin-4-one], for which the IC50 against hALDH2 is 0.312 µM; on hMAO-A, > 10 µM; at hMAO-B it was > 10 µM.
Take `O=c1c2ccc(OCc3noc(-c4cc(F)cc(C(F)(F)F)c4)n3)cc2ncn1-c1ccc(O)cc1` [7-({5-[5-fluoro-3-(trifluoromethyl)phenyl](1,2,4-oxadiazol-3-yl)}methoxy)-3-(4-hydroxyphenyl)-3-hydroquinazolin-4-one]: the values for the 50% inhibitory concentration (IC50) against hALDH2, at hMAO-A and on hMAO-B were 0.07 µM, > 10 µM and > 10 µM, respectively.
On to `O=C(O)c1cccc(COc2ccc3c(=O)n(-c4ccc(O)cc4)cnc3c2)c1` [Example 3A, 3-{[3-(4-hydroxyphenyl)-4-oxo-3-hydroquinazolin-7-yloxy]methyl}benzoic acid], for which the IC50 is 0.136 µM against hALDH2, > 10 µM on hMAO-A and > 10 µM on hMAO-B.
With `O=c1c2ccc(OCc3noc(-c4cccc(C(F)(F)F)c4)n3)cc2ncn1-c1ccc(O)cc1` [3-(4-hydroxyphenyl)-7-({5-[3-(trifluoromethyl)phenyl](1,2,4-oxadiazol-3-yl)}methoxy)-3-hydroquinazolin-4-one], the results for the IC50 at hALDH2, on hMAO-A and at hMAO-B were 0.03 µM, > 10 µM and > 10 µM, respectively.
In the case of `N#Cc1cccc(-c2nc(COc3ccc4c(=O)n(-c5ccc(O)cc5)cnc4c3)no2)c1` [3-(3-{[3-(4-hydroxyphenyl)-4-oxo-3-hydroquinazolin-7-yloxy]methyl}-1,2,4-oxadiazol-5-yl)benzenecarbonitrile], at hALDH2 (at 1 μM), the hALDH2 % inhibition is 25% inhibition at 1 μM. The concentration for half-maximal inhibition (IC50) on hMAO-A and at hMAO-B was > 10 µM throughout.
For the compound `N#Cc1cccc(COc2ccc3c(=O)n(-c4ccc(O)cc4)cnc3c2)c1` [3-{[3-(4-hydroxyphenyl)-4-oxo-3-hydroquinazolin-7-yloxy]methyl} benzenecarbonitrile], the IC50 was 0.196 µM on hALDH2, > 10 µM on hMAO-A and > 10 µM at hMAO-B.
For the compound `COc1ccc(-c2nc(COc3ccc4c(=O)n(-c5ccc(O)cc5)cnc4c3)no2)cc1C(F)(F)F` [3-(4-hydroxyphenyl)-7-({5-[4-methoxy-3-(trifluoromethyl)phenyl](1,2,4-oxadiazol-3-yl)}methoxy)-3-hydroquinazolin-4-one], the values for the IC50 on hALDH2, on hMAO-A and at hMAO-B were 0.1 µM, > 10 µM and > 10 µM, respectively.
On to `O=c1c2ccc(OCc3noc(-c4cc(C(F)(F)F)cc(C(F)(F)F)c4)n3)cc2ncn1-c1ccc(O)cc1` [7-({5-[3,5-bis(trifluoromethyl)phenyl](1,2,4-oxadiazol-3-yl)}methoxy)-3-(4-hydroxyphenyl)-3-hydroquinazolin-4-one], for which the IC50 against hALDH2 is 0.07 µM; at hMAO-A, > 10 µM; on hMAO-B, > 10 µM.
Turning to `O=c1c2ccc(OCc3noc(-c4ccccc4)n3)cc2ncn1-c1ccc(O)cc1` [3-(4-hydroxyphenyl)-7-[(5-phenyl(1,2,4-oxadiazol-3-yl))methoxy]-3-hydroquinazolin-4-one], the 50% inhibitory concentration (IC50) against hALDH2 is 0.107 µM; at hMAO-A it was > 10 µM; on hMAO-B it was > 10 µM.
Turning to `NC(=O)c1cccc(COc2ccc3c(=O)n(-c4ccc(O)cc4)cnc3c2)c1` [3-{[3-(4-hydroxyphenyl)-4-oxo-3-hydroquinazolin-7-yloxy]methyl}benzamide], the concentration for half-maximal inhibition (IC50) is 0.021 µM at hALDH2, > 10 µM at hMAO-A and > 10 µM on hMAO-B.
Take `C=CCOC(=O)c1cccc(COc2ccc3c(=O)n(-c4ccc(O)cc4)cnc3c2)c1` [Example 2A, prop-2-enyl 3-{[3-(4-hydroxyphenyl)-4-oxo-3-hydroquinazolin-7-yloxy]methyl} benzoate]: the half-maximal inhibitory concentration (IC50) was 0.196 µM against hALDH2, > 10 µM on hMAO-A and > 10 µM at hMAO-B.
In the case of `COc1ccccc1-c1nc(COc2ccc3c(=O)n(-c4ccc(O)cc4)cnc3c2)no1` [7-({5-[2-methoxyphenyl](1,2,4-oxadiazol-3-yl)}methoxy)-3-(4-hydroxyphenyl)-3-hydroquinazolin-4-one], the IC50 against hALDH2 is 0.09 µM; on hMAO-A it was > 10 µM; at hMAO-B it was > 10 µM.
In the case of `O=c1c(-c2ccc(O)cc2)coc2cc(O)ccc12` [daidzein], in the assay on Syrian golden hamsters, the “suppression of ethanol intake” value was “effective in suppressing ethanol intake; also recorded: effective in suppressing ethanol uptake”.
